Here are results for six compounds from publication PMC10744248, “Unsymmetrical Pd(II) Pincer Complexes with Benzothiazole and Thiocarbamate Flanking Units: Expedient Solvent-Free Synthesis and Anticancer Potential” (International Journal of Molecular Sciences, 2023).

The subject of one data set is human cell lines. Put plainly: MTT cytotoxicity assay, cell line panel (line not specified). The data set is classed as cell-based. The following applies: at a concentration as high as 60 μM. Here is the method:
(§1) To estimate the anticancer potential of palladacycles 2a,b, their ability to inhibit cell growth in different solid and blood cancer cell lines was determined using the conventional MTT assay. […] This underscores the importance of a more labile pincer-type coordination that can be achieved not only by the introduction of two different donor centers (like hard nitrogen and soft sulfur atoms) but also via elongating one of the side arms (like in the considered thiophosphoryloxy and thiocarbamate derivatives). In turn, the stability of a pincer-type framework of complex 2b, used as a representative example, in neat DMSO, DMSO–water, and DMSO–PBS mixtures for 2 days was confirmed by the results of UV-vis spectroscopic studies (for the corresponding spectra, see Figures S33–S35 in the SI).
However, in certain cases, the selectivity indices approached and even exceeded 10.0. Of particular note is the same level of cytotoxicity of both benzothiazole–thiocarbamate complexes against parental cell lines and doxorubicin-resistant clones of non-cancerous mammary epithelial cells (HBL100 and HBL100/Dox) and, more importantly, chronic myelogenous leukemia cells K562 and K562/iS9. […]
For orientation: Tetrazolium dyes change colour on reduction, which living cells bring about.

Data set [1] relates to human colorectal carcinoma (HCT116) cells. Put plainly: MTT cytotoxicity assay, HCT116. The following applies: for IC50: HCT116, MTT assay. The data set is classed as cell-based. As to the method:
(§2) To estimate the anticancer potential of palladacycles 2a,b, their ability to inhibit cell growth in different solid and blood cancer cell lines was determined using the conventional MTT assay.
(§3) The cytotoxicities of ligand 1b and Pd(II) pincer complexes 2a,b, V, and VI (X = O) were studied on human colorectal carcinoma (HCT116), breast cancer (MCF7), prostate adenocarcinoma (PC3), chronic myelogenous leukemia (K562 and K562/iS9), multiple plasmacytoma (AMO1), and acute lymphoblastic leukemia (H9) cell lines, as well as human embryonic kidney (HEK293) and mammary epithelial (HBL100 and HBL100/Dox) cells used as representatives of non-cancerous cell lines. All the cell lines were obtained from American Type Culture Collection (ATCC). The tested compounds were initially dissolved in DMSO. […] The detailed procedure is described in Ref. [52].

Data set [2] has as its system breast cancer (MCF7) cells. Put plainly: MTT cytotoxicity assay, MCF7. The data set is classed as cell-based, human. The following applies: for IC50: MCF7, MTT assay. As to the method: as §2, §3
For data set [3], the system named is prostate adenocarcinoma (PC3) cells. Put plainly: MTT cytotoxicity assay, PC3. The data set is classed as cell-based, human. The following applies: for IC50: PC3, MTT assay. Here is the method: as §2, §3
The subject of data set [4] is chronic myelogenous leukemia K562 cells. Put plainly: MTT cytotoxicity assay, K562. In kind it is cell-based, human. Here is the method:
as §2, §3

In data set [5] the test system is doxorubicin-resistant chronic myelogenous leukemia K562/iS9 cells. Put plainly: MTT cytotoxicity assay, K562/iS9. The data set is classed as cell-based, human. As to the method: as §1
(§4) However, in certain cases, the selectivity indices approached and even exceeded 10.0. Of particular note is the same level of cytotoxicity of both benzothiazole–thiocarbamate complexes against parental cell lines and doxorubicin-resistant clones of non-cancerous mammary epithelial cells (HBL100 and HBL100/Dox) and, more importantly, chronic myelogenous leukemia cells K562 and K562/iS9. The additional investigations by flow cytometry performed on K562 and K562/iS9 cancer cells treated with complex 2a using the Annexin V-FITC/PI double staining assay confirmed its ability to […] (Figure 4), increasing the populations of early (lower right quadrants) and late (upper right quadrants) apoptotic cells in both parental and resistant lines. These findings argue for the possibility of creating new promising anticancer agents based on the related cyclopalladated derivatives that could potentially evade drug resistance of cancer cells.
(§5) The cytotoxicities of ligand 1b and Pd(II) pincer complexes 2a,b, V, and VI (X = O) were studied on human colorectal carcinoma (HCT116), breast cancer (MCF7), prostate adenocarcinoma (PC3), chronic myelogenous leukemia (K562 and K562/iS9), multiple plasmacytoma (AMO1), and acute lymphoblastic leukemia (H9) cell lines, as well as human embryonic kidney (HEK293) and mammary epithelial (HBL100 and HBL100/Dox) cells used as representatives of non-cancerous cell lines. All the cell lines were obtained from American Type Culture Collection (ATCC). The tested compounds were initially dissolved in DMSO. Cisplatin (in the initial form of an infusion concentrate in natural saline solution) from a commercial source was used as a positive control. The detailed procedure is described in Ref. [52].

Data set [6] has as its system multiple plasmacytoma (AMO1) cells. Put plainly: MTT cytotoxicity assay, AMO1. The data set is classed as cell-based, human. As to the method:
as §2, §3

Data set [7] relates to acute lymphoblastic leukemia (H9) cells. Put plainly: MTT cytotoxicity assay, H9. In kind it is cell-based, human. Here is the method:
as §2, §3

The test system of data set [8] is human embryonic kidney (HEK293) cells. Put plainly: MTT cytotoxicity assay, HEK293. In kind it is cell-based. The following applies: HEK293 (non-cancerous). Here is the method: as §2, §3
Data set [9] deals with mammary epithelial HBL100 cells. Put plainly: MTT cytotoxicity assay, HBL100. The following applies: HBL100 (non-cancerous). The data set is classed as cell-based, human. Here is the method: as §2, §3
Data set [10] deals with doxorubicin-resistant mammary epithelial HBL100/Dox cells. Put plainly: MTT cytotoxicity assay, HBL100/Dox. In kind it is cell-based, human. The following applies: HBL100/dox (non-cancerous, doxorubicin-resistant). As to the method:
as §1, §4, §5

Data set [11] can be described thus: Stability by UV-vis spectroscopy. The data set is classed as physicochemical. As to the method:
as §1
The UV–vis spectra were registered on a Cary50 spectrometer in quartz cells with 10 mm path length (Figures S33–S35 in the SI).
Figure S33. […]
DMSO–PBS (1:1) registered immediately after dissolution (a) , in one ( b) or two (c) days Note: a reduction in the absorbance in the case of the DMSO–PBS (1:1) solution in time is connected […]
To confirm its identity, the resulting precipitate was collected by filtration, dried in air, dissolved in neat DMSO, and immediately analyzed by UV-Vis spectroscopy (see Fig. S35). […]

Consider `CCN(CC)C(=S)Oc1cccc(-c2nc3ccccc3s2)c1` [1b, O-[3-(Benzo[d]thiazol-2-yl)phenyl] Diethylthiocarbamate], for which, in the data set on human cell lines, the cytotoxicity result was “nontoxic”.
As to `CCN(CC)C1=[S+][Pd-2]2([Cl])[c]3c(cccc3-c3sc4ccccc4[n+]32)O1` (centres unmarked) [2b], the IC50 (commonly the concentration needed to halve the response being measured) in data set [1] came to 12.7 ± 1.5 µM; in data set [2], 13.5 ± 2.1 µM; in [3] it was 8.5 ± 2.5 µM; in data set [4] it was 2.9 ± 0.4 µM; in data set [5], 2.6 ± 0.8 µM; in data set [6], 4.4 ± 0.8 µM. The IC50 in data set [7] came to 2.1 ± 0.9 µM; in data set [8] it was 9.5 ± 0.7 µM; in data set [9] it was 10.2 ± 3.3 µM; in data set [10] it was 16.3 ± 3.8 µM. Further, the “behaviour in DMSO–PBS (1:1) solution in time (reduction in absorbance)” value in data set [11] (DMSO–PBS (1:1), up to 2 days) was “gradual precipitation”. Also, the “stability of the pincer-type framework” value in [11] (neat DMSO, DMSO–water and DMSO–PBS mixtures (1:1), 2 days) is given as “confirmed”.
As to `[Cl][Pd-2]12[S+]=P(c3ccccc3)(c3ccccc3)Oc3cccc([c]31)-c1sc3ccccc3[n+]12` (centres unmarked) [VI (X = O), reference compound], the concentration for half-maximal inhibition (IC50) in [1] was determined as 10.3 ± 0.8 µM; in data set [2] it was 17 ± 0.5 µM; in data set [3], 6.6 ± 0.6 µM; in [4], 1.9 ± 0.3 µM; in data set [5], 2.5 ± 0.4 µM; in data set [6] it was 3.4 ± 0.5 µM. The half-inhibitory concentration (IC50) turned out to be 1.7 ± 0.3 µM in data set [7], 13 ± 0.5 µM in [8], 9.4 ± 0.9 µM in data set [9] and 28.6 ± 3.8 µM in [10].
Turning to `[Cl][Pd-2]12[S+]=P(c3ccccc3)(c3ccccc3)c3cccc([c]31)-c1sc3ccccc3[n+]12` (centres unmarked) [V, reference compound], the “percentage of living cells” value in data set [1] (HCT116, at a concentration of 80 μM) is listed as “over 60%”; in [2] (MCF7, at a concentration of 80 μM) it was “over 60%”; in [3] (PC3, at a concentration of 80 μM), “over 60%”.
For `CN(C)C1=[S+][Pd-2]2([Cl])[c]3c(cccc3-c3sc4ccccc4[n+]32)O1` (centres unmarked) [2a], the IC50 in data set [1] turned out to be 1.3 ± 0.2 µM; in data set [2] it was 3.3 ± 0.4 µM; in data set [3] it was 1.1 ± 0.3 µM; in data set [4] it was 0.9 ± 0.2 µM; in data set [5] it was 0.9 ± 0.1 µM; in [6], 0.3 ± 0.1 µM. Further, the 50% inhibitory concentration (IC50) came to 1.3 ± 0.1 µM in [7], 2.5 ± 0.2 µM in data set [8], 3.2 ± 0.5 µM in data set [9] and 4.4 ± 0.8 µM in data set [10].
With `N.N.[Cl][Pt][Cl]` [Cisplatin, reference compound], the half-maximal inhibitory concentration (IC50) in data set [5] stood at 16 ± 2 µM; in [10], 23.6 ± 3.6 µM.
